This data set relates to CCRIS mutagenicity, Ames/micronucleus/aberration tests. Nature of the data set: CCRIS mutagenicity studies.
[1] abbreviates: Test System: AMES SALMONELLA TYPHIMURIUM, Strain/Indicator: TA100, Metabolic Activation: HAMSTER, LIVER, S-9, AROCLOR 1254 (10%), Method: PREINCUBATION
[2] abbreviates: Test System: AMES SALMONELLA TYPHIMURIUM, Strain/Indicator: TA100, Metabolic Activation: NONE, Method: PREINCUBATION
[3] abbreviates: Test System: AMES SALMONELLA TYPHIMURIUM, Strain/Indicator: TA100, Metabolic Activation: NONE, Method: STANDARD PLATE.
Setting [4] is: Test System: AMES SALMONELLA TYPHIMURIUM, Strain/Indicator: TA100, Metabolic Activation: RAT, LIVER, S-9, AROCLOR 1254 (10%), Method: PREINCUBATION
[5] abbreviates: Test System: AMES SALMONELLA TYPHIMURIUM, Strain/Indicator: TA1535, Metabolic Activation: HAMSTER, LIVER, S-9, AROCLOR 1254 (10%), Method: PREINCUBATION
Where [6] appears, read: Test System: AMES SALMONELLA TYPHIMURIUM, Strain/Indicator: TA1535, Metabolic Activation: NONE, Method: PREINCUBATION
Where [7] appears, read: Test System: AMES SALMONELLA TYPHIMURIUM, Strain/Indicator: TA1535, Metabolic Activation: NONE, Method: STANDARD PLATE.
Where [8] appears, read: Test System: AMES SALMONELLA TYPHIMURIUM, Strain/Indicator: TA1535, Metabolic Activation: RAT, LIVER, S-9, AROCLOR 1254 (10%), Method: PREINCUBATION
[9] abbreviates: Test System: AMES SALMONELLA TYPHIMURIUM, Strain/Indicator: TA98, Metabolic Activation: NONE, Method: PREINCUBATION

The source of these data is PubChem BioAssay AID1259407 (Chemical Carcinogenesis Research Information System (CCRIS), 2018).

Active and inactive are the calls of the source. No rule for the calls is given here.

On to `C=CC1CO1` (stereo not given), for which the mutagenic call by setting is: (End Point: IN VIVO CHROMOSOMAL ABERRATIONS, Test System: BONE MARROW CELLS, Species: MOUSE, Strain/Sex: C57B1/6/MALE, Route: IP INJECTION (ONCE)) “active; positive”; (End Point: IN VIVO MICRONUCLEUS, Test System: BONE MARROW POLYCHROMATIC ERYTHROCYTES, Species: MOUSE, Strain/Sex: C57/BL/MALE, Route: INTRAPERITONEAL INJECTION) “active; positive”; (End Point: IN VIVO MICRONUCLEUS, Test System: PERIPHERAL BLOOD RETICULOCYTES, Species: MOUSE, Strain/Sex: BALB/C/MALE, Route: IP INJECTION, ONCE) “active; positive”; (End Point: IN VIVO MICRONUCLEUS, Test System: SPERMATID, Species: RAT, Strain/Sex: SPRAGUE-DAWLEY/MALE, Route: IP INJECTION) “active; positive”; (End Point: IN VIVO MICRONUCLEUS, Test System: SPERMATIDS, Species: MOUSE, Strain/Sex: (102XC3H)F1/MALE, Route: IP INJECTION) “active; positive only at 14 d and higher dose levels”; (End Point: IN VIVO MICRONUCLEUS, Test System: SPERMATIDS, Species: MOUSE, Strain/Sex: BALB/C/MALE, Route: IP INJECTION, ONCE) “active; positive (positive in golgi-phase and at highest dose after 14 or 16 d)”. Besides, the mutagenic call is “active; positive” (End Point: IN VIVO MICRONUCLEUS, Test System: SPERMATIDS, Species: RAT, Strain/Sex: LEWIS/MALE, Route: IP INJECTION); “active; positive” (End Point: IN VIVO MICRONUCLEUS, Test System: SPLENOCYTES, Species: MOUSE, Strain/Sex: (102XC3H)F1/MALE, Route: IP INJECTION); “active; positive only for 48.8 mg dose at either 2 or 16 d after treatment” (End Point: IN VIVO MICRONUCLEUS, Test System: SPLENOCYTES, Species: MOUSE, Strain/Sex: BALB/C, Route: IP); “active; positive” (End Point: IN VIVO MICRONUCLEUS, Test System: SPLENOCYTES, Species: RAT, Strain/Sex: LEWIS/MALE, Route: IP INJECTION); “inactive; negative” (Test System: AMES SALMONELLA TYPHIMURIUM, Strain/Indicator: TA98, Metabolic Activation: NONE, Method: STANDARD PLATE); “active; positive” under setting [1]. In addition, the mutagenic call by setting is: under setting [2], “active; positive”; under setting [3], “active; positive”; under setting [4], “active; positive”; (Test System: AMES SALMONELLA TYPHIMURIUM, Strain/Indicator: TA100, Metabolic Activation: RAT, LIVER, S-9, AROCLOR 1254, Method: STANDARD PLATE) “active; positive”; under setting [5], “active; positive”; under setting [6], “active; positive”. Also, the mutagenic call under setting [7] is “active; positive”; the mutagenic call under setting [8] is “active; positive”; the mutagenic call (Test System: UDS MOUSE SPERM CELL, Strain/Indicator: THY INCORP, Metabolic Activation: IN VIVO, Method: LIQUID SCINTILLATION COUNTING) was “inactive; negative”; the mutagenic call (Test System: UDS RODENT HEPATOCYTES, Strain/Indicator: THY INCORP (NON-S-PHASE), Metabolic Activation: NONE, Method: AUTORADIOGRAPHY) is “inactive; negative”.

In the case of `OC(CCl)CCl`, the mutagenic call by setting is: (Test System: AMES SALMONELLA TYPHIMURIUM, Strain/Indicator: TA97, Metabolic Activation: HAMSTER, LIVER, S-9, AROCLOR 1254 (10%), Method: PREINCUBATION) “active; positive”; (Test System: AMES SALMONELLA TYPHIMURIUM, Strain/Indicator: TA97, Metabolic Activation: NONE, Method: PREINCUBATION) “inactive; negative”; (Test System: AMES SALMONELLA TYPHIMURIUM, Strain/Indicator: TA97, Metabolic Activation: RAT, LIVER, S-9, AROCLOR 1254 (10%), Method: PREINCUBATION) “inactive; negative”; (Test System: AMES SALMONELLA TYPHIMURIUM, Strain/Indicator: TA98, Metabolic Activation: HAMSTER, LIVER, S-9, AROCLOR 1254 (10%), Method: PREINCUBATION) “active; positive”; under setting [9], “inactive; negative”; (Test System: AMES SALMONELLA TYPHIMURIUM, Strain/Indicator: TA98, Metabolic Activation: RAT, LIVER, S-9, AROCLOR 1254 (10%), Method: PREINCUBATION) “inactive; negative”. Besides, the mutagenic call runs as follows: (Test System: AMES SALMONELLA TYPHIMURIUM, Strain/Indicator: TA100, Metabolic Activation: ADH AND NAD+ (5 OR 50 µL), Method: PREINCUBATION) “active; positive”; under setting [1], “active; positive”; (Test System: AMES SALMONELLA TYPHIMURIUM, Strain/Indicator: TA100, Metabolic Activation: MOUSE, LIVER, S-9, PHENOBARBITAL, Method: STANDARD PLATE) “active; positive”; under setting [2], “active; positive”; under setting [3], “active; positive”; under setting [4], “active; positive”. Besides, the mutagenic call runs as follows: (Test System: AMES SALMONELLA TYPHIMURIUM, Strain/Indicator: TA100, Metabolic Activation: RAT, LIVER, S-9, AROCLOR 1254 (NAD+), Method: PREINCUBATION) “active; positive”; (Test System: AMES SALMONELLA TYPHIMURIUM, Strain/Indicator: TA100, Metabolic Activation: RAT, LIVER, S-9, AROCLOR 1254 (NADP+), Method: PREINCUBATION) “active; positive”; (Test System: AMES SALMONELLA TYPHIMURIUM, Strain/Indicator: TA100, Metabolic Activation: RAT, LIVER, S-9, PCB, Method: STANDARD PLATE) “active; positive”; (Test System: AMES SALMONELLA TYPHIMURIUM, Strain/Indicator: TA100, Metabolic Activation: RAT, LIVER, S-9, PHENOBARBITAL, Method: STANDARD PLATE) “active; positive”; (Test System: AMES SALMONELLA TYPHIMURIUM, Strain/Indicator: TA1535, Metabolic Activation: ADH AND NAD+ (50 µL), Method: PREINCUBATION) “active; positive”; under setting [5], “active; positive”. In addition, the mutagenic call under setting [6] was “active; positive”; the mutagenic call under setting [7] was “active; positive”; the mutagenic call under setting [8] was “active; positive”; the mutagenic call (Test System: AMES SALMONELLA TYPHIMURIUM, Strain/Indicator: TA1535, Metabolic Activation: RAT, LIVER, S-9, AROCLOR 1254 (ADH AND NAD+), Method: PREINCUBATION) was “active; positive”; the mutagenic call (Test System: AMES SALMONELLA TYPHIMURIUM, Strain/Indicator: TA1535, Metabolic Activation: RAT, LIVER, S-9, AROCLOR 1254 (NADP+), Method: PREINCUBATION) is “active; positive”; the mutagenic call (Test System: AMES SALMONELLA TYPHIMURIUM, Strain/Indicator: TA1535, Metabolic Activation: RAT, LIVER, S-9, PCB, AROCLOR 1254, Method: STANDARD PLATE) was “active; positive”.

Consider `CC(C)(N=NC(C)(C)C(=N)N)C(=N)N`, for which the mutagenic call is “active; positive” under setting [9]; “active; positive” (Test System: AMES SALMONELLA TYPHIMURIUM, Strain/Indicator: TA98, Metabolic Activation: RAT, LIVER, S-9, PHENOBARBITAL AND 5,6-BENZOFLAVONE, Method: PREINCUBATION); “active; positive” under setting [2]; “active; positive” (Test System: AMES SALMONELLA TYPHIMURIUM, Strain/Indicator: TA100, Metabolic Activation: RAT, LIVER, S-9, PHENOBARBITAL AND 5,6-BENZOFLAVONE, Method: PREINCUBATION).
